Earlier results on two compounds are cited in patent US20050095286A1, “Extended release compositions” (Fabre Kramer Pharmaceuticals, Inc., priority 2003, published 2005).

Series [1] addresses D2-receptor binding sites (Homo sapiens, UniProt P14416). As to conditions: background statement, U.S. Pat. No. 5,010,078.
For series [2], the target named is T1, 5-HT1A receptor binding sites (Homo sapiens, UniProt P08908).
T1 sequence (P08908 1-422): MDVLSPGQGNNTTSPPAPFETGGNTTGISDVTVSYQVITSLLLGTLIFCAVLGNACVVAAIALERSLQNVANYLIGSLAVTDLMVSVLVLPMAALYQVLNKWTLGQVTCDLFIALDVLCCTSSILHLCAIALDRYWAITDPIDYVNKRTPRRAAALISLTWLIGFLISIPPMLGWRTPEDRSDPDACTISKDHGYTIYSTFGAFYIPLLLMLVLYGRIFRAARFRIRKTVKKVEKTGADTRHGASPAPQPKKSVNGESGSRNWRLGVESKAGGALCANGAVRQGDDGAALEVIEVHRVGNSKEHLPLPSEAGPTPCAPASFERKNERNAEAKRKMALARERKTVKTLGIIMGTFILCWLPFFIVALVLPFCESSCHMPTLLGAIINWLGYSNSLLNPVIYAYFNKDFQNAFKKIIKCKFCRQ
The settings on record: background statement, U.S. Pat. No. 5,010,078.

The next series has as its target T2, 5HT1a-receptors (Homo sapiens, UniProt P08908).
T2 sequence (P08908 1-422): T1 sequence (P08908 1-422)
As to conditions: background statement.

The conditions of series [3]: background statement.

Chain of D2-receptor binding sites (P14416 whole entry): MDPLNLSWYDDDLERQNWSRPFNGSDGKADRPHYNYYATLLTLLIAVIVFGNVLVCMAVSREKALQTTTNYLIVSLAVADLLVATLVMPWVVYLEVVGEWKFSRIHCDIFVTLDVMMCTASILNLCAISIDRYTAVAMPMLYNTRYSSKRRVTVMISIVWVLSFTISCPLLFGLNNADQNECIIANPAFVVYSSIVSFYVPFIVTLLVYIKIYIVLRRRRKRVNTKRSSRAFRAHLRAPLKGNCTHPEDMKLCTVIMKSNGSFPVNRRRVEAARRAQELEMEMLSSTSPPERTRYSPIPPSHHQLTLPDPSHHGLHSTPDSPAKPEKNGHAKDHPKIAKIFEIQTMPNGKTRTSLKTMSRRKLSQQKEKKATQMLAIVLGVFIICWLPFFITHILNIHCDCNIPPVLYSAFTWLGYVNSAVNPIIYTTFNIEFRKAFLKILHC

Consider `O=C(NCCN1CCN(c2ncccn2)CC1)[C@]12C[C@H]3C[C@@H](C[C@H](C3)C1)C2` [adatanserin], for which the “affinity for the D2-receptor binding site” value in series [1] is “high affinity”. Further, in series [2], the “affinity for the 5-HT1A receptor binding site” value is “high affinity”; the “selectivity at the 5-HT1A and 5-HT2 versus D2 receptor binding sites” value is given as “demonstrated selectivity”.

Regarding `Cl.O=c1c(CO)coc2cc(OCCCN3CCC(c4noc5cc(F)ccc45)CC3)ccc12` [abaperidone], the “affinity to 5HT1a-receptors” value at 5HT1a-receptors is recorded as “high affinity”. Also, the therapeutic index entry in series [3] is reported as “high therapeutic index”.
